From paper PMC9683047, “Design, synthesis and biological evaluation of 4-aminoquinoline derivatives as receptor-interacting protein kinase 2 (RIPK2) inhibitors” (Journal of Enzyme Inhibition and Medicinal Chemistry, 2022)

Experiments:
[1] = molecular target: T1, Itk(h) (Homo sapiens, UniProt Q08881); experiment: Kinase selectivity panel: Itk; assay type: biochemical
T1 construct: purchased Eurofins (Millipore) KinaseProfiler Diversity Panel
Description: (§1) To confirm the anti-inflammatory effect was caused by RIPK2 inhibition, compound 14 was subjected to kinase selectivity evaluation (Figure 4). Kinase selectivity profile of compound 14 as shown by the diversity kinase Panel screen against 70 kinases assayed at 1 µM. Among all tested 70 kinases, only five were inhibited over 90% at 1 µM including Fyn, Lyn, BTK, Abl and RIPK2. Three kinases including KDR, CDK9 and LOK were inhibited 50–90% at 1 µM.

[2] = molecular target: T2, PKCα(h) (Homo sapiens, UniProt P17252); experiment: Kinase selectivity panel: PKCα; assay type: biochemical; settings: 1 µM
T2 construct: purchased Eurofins (Millipore) KinaseProfiler Diversity Panel
Description: as §1

[3] = molecular target: T3, GSK3β(h) (Homo sapiens, UniProt P49841); experiment: Kinase selectivity panel: GSK3β; assay type: biochemical; settings: 1 µM
T3 construct: purchased Eurofins (Millipore) KinaseProfiler Diversity Panel
Description: as §1

[4] = molecular target: T4, ROCK-I(h) (Homo sapiens, UniProt Q13464); experiment: Kinase selectivity panel: ROCK-I; assay type: biochemical; settings: 1 µM
T4 construct: purchased Eurofins (Millipore) KinaseProfiler Diversity Panel
Description: as §1

[5] = molecular target: T5, eEF-2K(h) (Homo sapiens, UniProt O00418); experiment: Kinase selectivity panel: eEF-2K; assay type: biochemical
T5 construct: purchased Eurofins (Millipore) KinaseProfiler Diversity Panel
Description: as §1

[6] = molecular target: T6, EGFR(h) (Homo sapiens, UniProt P00533); experiment: Kinase selectivity panel: EGFR; assay type: biochemical; set-up: unit not given here
T6 construct: purchased Eurofins (Millipore) KinaseProfiler Diversity Panel
Description: as §1

[7] = molecular target: T7, AMPKα1(h) (Homo sapiens, UniProt Q13131); experiment: Kinase selectivity panel: AMPKα1; assay type: biochemical
T7 construct: purchased Eurofins (Millipore) KinaseProfiler Diversity Panel
Description: as §1

[8] = molecular target: T8, Pim-1(h) (Homo sapiens, UniProt P11309); experiment: Kinase selectivity panel: Pim-1; assay type: biochemical
T8 construct: purchased Eurofins (Millipore) KinaseProfiler Diversity Panel
Description: as §1

[9] = molecular target: T9, PKG1α(h) (Homo sapiens, UniProt Q13976); experiment: Kinase selectivity panel: PKG1α; assay type: biochemical
T9 construct: purchased Eurofins (Millipore) KinaseProfiler Diversity Panel
Description: as §1

[10] = molecular target: T10, PKA(h) (Homo sapiens, UniProt P17612); experiment: Kinase selectivity panel: PKA; assay type: biochemical; settings: 1 µM
T10 construct: purchased Eurofins (Millipore) KinaseProfiler Diversity Panel
Description: as §1

[11] = molecular target: T11, CDK9/cyclin T1(h) (Homo sapiens, UniProt P50750); experiment: Kinase selectivity panel: CDK9/cyclin T1; assay type: biochemical
T11 construct: purchased Eurofins (Millipore) KinaseProfiler Diversity Panel
Description: as §1

[12] = molecular target: T12, Aurora-A(h) (Homo sapiens, UniProt O14965); experiment: Kinase selectivity panel: Aurora-A; assay type: biochemical; settings: 1 µM
T12 construct: purchased Eurofins (Millipore) KinaseProfiler Diversity Panel
Description: as §1

[13] = Human liver microsome stability; assay type: in vitro ADME; settings: human liver microsomes
[14] = molecular target: T13, ALK(h) (Homo sapiens, UniProt Q9UM73); experiment: Kinase selectivity panel: ALK; assay type: biochemical; settings: 1 µM
T13 construct: purchased Eurofins (Millipore) KinaseProfiler Diversity Panel
Description: as §1

[15] = molecular target: T14, RIPK2 (Homo sapiens, UniProt O43353); experiment: Lipophilic ligand efficiency (LipE); settings: LipE = pIC50 − ClogP
T14 construct: purchased Promega

[16] = molecular target: T15, PI3 Kinase (p110b/p85a)(h) (Homo sapiens, UniProt P42338); experiment: Kinase selectivity panel: PI3 Kinase (p110b/p85a); assay type: biochemical
T15 construct: purchased Eurofins (Millipore) KinaseProfiler Diversity Panel
Description: as §1

[17] = molecular target: T16, MEK1(h) (Homo sapiens, UniProt Q02750); experiment: Kinase selectivity panel: MEK1; assay type: biochemical; settings: 1 µM
T16 construct: purchased Eurofins (Millipore) KinaseProfiler Diversity Panel
Description: as §1

[18] = molecular target: T17, c-RAF(h) (Homo sapiens, UniProt P04049); experiment: Kinase selectivity panel: c-RAF; assay type: biochemical
T17 construct: purchased Eurofins (Millipore) KinaseProfiler Diversity Panel
Description: as §1

[19] = molecular target: T18, CDK7/cyclinH/MAT1(h) (Homo sapiens, UniProt P50613); experiment: Kinase selectivity panel: CDK7/cyclinH/MAT1; assay type: biochemical
T18 construct: purchased Eurofins (Millipore) KinaseProfiler Diversity Panel
Description: as §1

[20] = molecular target: T19, LOK(h) (Homo sapiens, UniProt O94804); experiment: Kinase selectivity panel: LOK; assay type: biochemical
T19 construct: purchased Eurofins (Millipore) KinaseProfiler Diversity Panel
Description: as §1

[21] = molecular target: T20, Syk(h) (Homo sapiens, UniProt P43405); experiment: Kinase selectivity panel: Syk; assay type: biochemical
T20 construct: purchased Eurofins (Millipore) KinaseProfiler Diversity Panel
Description: as §1

[22] = molecular target: T14, RIPK2; experiment: RIPK2 kinase inhibition assay (ADP-Glo); assay type: biochemical; settings: mean ± SD from two separate experiments
Description: RIPK2 kinase activity was analysed using the ADP-Glo™ Assay Kit (RIPK2 Kinase Enzyme System, Promega, USA). Reactions were performed according to the instructions. Specific signal was calculated by subtracting values in the wells without protein and inhibitor from the values in the test wells.

[23] = molecular target: T21, CaMKI(h) (Homo sapiens, UniProt Q14012); experiment: Kinase selectivity panel: CaMKI; assay type: biochemical; settings: 1 µM
T21 construct: purchased Eurofins (Millipore) KinaseProfiler Diversity Panel
Description: as §1

[24] = molecular target: T22, IRAK1(h) (Homo sapiens, UniProt P51617); experiment: Kinase selectivity panel: IRAK1; assay type: biochemical
T22 construct: purchased Eurofins (Millipore) KinaseProfiler Diversity Panel
Description: as §1

[25] = molecular target: T23, PI3 Kinase (p110d/p85a)(h) (Homo sapiens, UniProt O00329); experiment: Kinase selectivity panel: PI3 Kinase (p110d/p85a); assay type: biochemical; settings: 1 µM
T23 construct: purchased Eurofins (Millipore) KinaseProfiler Diversity Panel
Description: as §1

[26] = molecular target: T24, EphA5(h) (Homo sapiens, UniProt P54756); experiment: Kinase selectivity panel: EphA5; assay type: biochemical; settings: 1 µM
T24 construct: purchased Eurofins (Millipore) KinaseProfiler Diversity Panel
Description: as §1

[27] = molecular target: T25, DRAK1(h) (Homo sapiens, UniProt Q9UEE5); experiment: Kinase selectivity panel: DRAK1; assay type: biochemical; settings: 1 µM
T25 construct: purchased Eurofins (Millipore) KinaseProfiler Diversity Panel
Description: as §1

[28] = molecular target: T26, MAPKAP-K2(h) (Homo sapiens, UniProt P49137); experiment: Kinase selectivity panel: MAPKAP-K2; assay type: biochemical; settings: 1 µM
T26 construct: purchased Eurofins (Millipore) KinaseProfiler Diversity Panel
Description: as §1

[29] = molecular target: T27, BTK(R28H)(h) (Homo sapiens, UniProt Q06187, R28H); experiment: Kinase selectivity panel: BTK(R28H); assay type: biochemical; settings: 1 µM
T27 construct: purchased Eurofins (Millipore) KinaseProfiler Diversity Panel
Description: as §1

[30] = molecular target: T28, TYK2(h) (Homo sapiens, UniProt P29597); experiment: Kinase selectivity panel: TYK2; assay type: biochemical; settings: 1 µM
T28 construct: purchased Eurofins (Millipore) KinaseProfiler Diversity Panel
Description: as §1

[31] = molecular target: T29, JAK1(h) (Homo sapiens, UniProt P23458); experiment: Kinase selectivity panel: JAK1; assay type: biochemical
T29 construct: purchased Eurofins (Millipore) KinaseProfiler Diversity Panel
Description: as §1

[32] = molecular target: T30, SRPK1(h) (Homo sapiens, UniProt Q96SB4); experiment: Kinase selectivity panel: SRPK1; assay type: biochemical; set-up: unit not given here
T30 construct: purchased Eurofins (Millipore) KinaseProfiler Diversity Panel
Description: as §1

[33] = system: MDP-induced TNF-α secretion in Raw264.7; experiment: TNF-α secretion in MDP-induced Raw264.7 (ELISA); assay type: cell-based, mouse; settings: Raw264.7, compounds 1 h then L18-MDP 20 µg/mL 24 h, series concentration
Description: Raw 264.7 was cultured in DMEM containing 10% (w/v) foetal bovine serum (FBS). Cell were seeded at a density of 1 × 10^5 cells/well in a 48 well plate overnight, then cells were treated with different concentrations of compounds for1h, following by stimulated with L18-MDP (20 µg/mL, Invivogen) for 24 h. The Cell supernatants were harvested for enzyme-linked immunosorbent assay (ELISA).
TNFα commercial ELISA kits (DAKEWE) were used to detect TNFα in cell culture supernatants according to the manufacturer’s instructions. The concentration of cytokines was determined using multiwell spectrophotometer (SpetraMAX PLUS, Molecular Devices).

T11 sequence (P50750 whole entry): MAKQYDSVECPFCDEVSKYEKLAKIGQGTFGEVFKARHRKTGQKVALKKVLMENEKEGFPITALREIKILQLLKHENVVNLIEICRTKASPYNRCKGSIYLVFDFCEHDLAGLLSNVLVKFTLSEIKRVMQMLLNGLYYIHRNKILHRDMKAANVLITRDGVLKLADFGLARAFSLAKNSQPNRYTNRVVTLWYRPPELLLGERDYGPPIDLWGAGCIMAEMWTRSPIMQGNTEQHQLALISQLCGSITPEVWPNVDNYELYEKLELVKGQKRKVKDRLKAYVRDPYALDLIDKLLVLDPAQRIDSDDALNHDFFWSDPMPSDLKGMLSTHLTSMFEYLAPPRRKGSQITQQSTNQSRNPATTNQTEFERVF
T11 sequence (O60563 whole entry partner): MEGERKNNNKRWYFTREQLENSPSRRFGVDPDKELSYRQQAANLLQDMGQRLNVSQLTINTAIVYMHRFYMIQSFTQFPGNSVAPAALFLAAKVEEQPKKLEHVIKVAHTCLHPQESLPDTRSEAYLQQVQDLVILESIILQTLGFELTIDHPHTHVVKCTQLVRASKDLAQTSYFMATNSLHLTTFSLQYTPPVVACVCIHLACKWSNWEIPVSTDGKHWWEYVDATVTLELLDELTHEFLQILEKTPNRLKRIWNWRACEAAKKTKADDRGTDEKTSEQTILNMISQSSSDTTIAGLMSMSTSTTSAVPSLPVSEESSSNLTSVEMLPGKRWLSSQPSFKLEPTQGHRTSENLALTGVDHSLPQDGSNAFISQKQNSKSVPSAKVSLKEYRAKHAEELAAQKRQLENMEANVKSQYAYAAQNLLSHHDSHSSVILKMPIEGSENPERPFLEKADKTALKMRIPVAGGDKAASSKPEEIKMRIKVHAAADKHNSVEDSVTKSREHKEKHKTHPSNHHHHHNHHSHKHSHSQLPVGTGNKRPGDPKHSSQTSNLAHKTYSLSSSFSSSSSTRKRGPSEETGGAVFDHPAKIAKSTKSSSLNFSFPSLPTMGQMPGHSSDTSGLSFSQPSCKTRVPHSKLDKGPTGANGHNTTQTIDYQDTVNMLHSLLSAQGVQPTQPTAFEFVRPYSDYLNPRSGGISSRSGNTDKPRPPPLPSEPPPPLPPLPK
T14 sequence (O43353 whole entry): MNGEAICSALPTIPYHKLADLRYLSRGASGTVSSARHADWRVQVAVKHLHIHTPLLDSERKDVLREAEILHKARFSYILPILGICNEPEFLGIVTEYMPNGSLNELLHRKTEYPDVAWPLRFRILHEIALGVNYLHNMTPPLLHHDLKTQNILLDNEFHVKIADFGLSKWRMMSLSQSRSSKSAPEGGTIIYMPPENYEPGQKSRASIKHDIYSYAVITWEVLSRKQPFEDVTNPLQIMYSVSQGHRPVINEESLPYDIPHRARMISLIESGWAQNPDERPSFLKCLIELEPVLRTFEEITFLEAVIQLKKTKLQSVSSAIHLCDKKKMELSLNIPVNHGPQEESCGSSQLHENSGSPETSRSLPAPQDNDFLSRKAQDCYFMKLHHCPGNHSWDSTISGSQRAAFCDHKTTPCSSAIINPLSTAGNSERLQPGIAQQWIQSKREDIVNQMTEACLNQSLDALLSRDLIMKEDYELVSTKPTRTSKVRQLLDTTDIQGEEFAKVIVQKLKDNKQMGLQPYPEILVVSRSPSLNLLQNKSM
T19 sequence (O94804 whole entry): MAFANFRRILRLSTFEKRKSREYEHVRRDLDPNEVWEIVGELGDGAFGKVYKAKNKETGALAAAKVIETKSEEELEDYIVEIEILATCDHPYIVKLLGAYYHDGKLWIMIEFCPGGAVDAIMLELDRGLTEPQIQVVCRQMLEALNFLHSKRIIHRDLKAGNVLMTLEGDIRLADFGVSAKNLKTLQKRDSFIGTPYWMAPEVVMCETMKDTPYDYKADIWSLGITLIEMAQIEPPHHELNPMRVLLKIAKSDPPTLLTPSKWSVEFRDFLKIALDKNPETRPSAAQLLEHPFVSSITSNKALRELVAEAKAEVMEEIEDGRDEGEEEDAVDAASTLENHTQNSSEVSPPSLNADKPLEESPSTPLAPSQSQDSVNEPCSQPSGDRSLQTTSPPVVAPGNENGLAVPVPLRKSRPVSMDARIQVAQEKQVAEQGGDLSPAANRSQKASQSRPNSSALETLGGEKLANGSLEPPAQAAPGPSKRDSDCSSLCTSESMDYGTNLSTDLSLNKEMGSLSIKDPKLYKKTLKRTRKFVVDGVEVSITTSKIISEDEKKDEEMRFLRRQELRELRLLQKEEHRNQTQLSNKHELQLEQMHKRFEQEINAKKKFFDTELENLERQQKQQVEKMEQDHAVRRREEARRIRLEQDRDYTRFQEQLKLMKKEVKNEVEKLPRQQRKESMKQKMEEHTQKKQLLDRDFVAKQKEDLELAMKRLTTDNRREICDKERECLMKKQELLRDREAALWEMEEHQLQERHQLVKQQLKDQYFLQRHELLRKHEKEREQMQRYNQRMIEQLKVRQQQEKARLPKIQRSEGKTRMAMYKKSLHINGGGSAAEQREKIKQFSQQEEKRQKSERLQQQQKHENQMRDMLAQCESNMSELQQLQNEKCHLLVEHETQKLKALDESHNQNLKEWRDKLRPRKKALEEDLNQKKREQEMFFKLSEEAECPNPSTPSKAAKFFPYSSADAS
T23 sequence (O00329 whole entry): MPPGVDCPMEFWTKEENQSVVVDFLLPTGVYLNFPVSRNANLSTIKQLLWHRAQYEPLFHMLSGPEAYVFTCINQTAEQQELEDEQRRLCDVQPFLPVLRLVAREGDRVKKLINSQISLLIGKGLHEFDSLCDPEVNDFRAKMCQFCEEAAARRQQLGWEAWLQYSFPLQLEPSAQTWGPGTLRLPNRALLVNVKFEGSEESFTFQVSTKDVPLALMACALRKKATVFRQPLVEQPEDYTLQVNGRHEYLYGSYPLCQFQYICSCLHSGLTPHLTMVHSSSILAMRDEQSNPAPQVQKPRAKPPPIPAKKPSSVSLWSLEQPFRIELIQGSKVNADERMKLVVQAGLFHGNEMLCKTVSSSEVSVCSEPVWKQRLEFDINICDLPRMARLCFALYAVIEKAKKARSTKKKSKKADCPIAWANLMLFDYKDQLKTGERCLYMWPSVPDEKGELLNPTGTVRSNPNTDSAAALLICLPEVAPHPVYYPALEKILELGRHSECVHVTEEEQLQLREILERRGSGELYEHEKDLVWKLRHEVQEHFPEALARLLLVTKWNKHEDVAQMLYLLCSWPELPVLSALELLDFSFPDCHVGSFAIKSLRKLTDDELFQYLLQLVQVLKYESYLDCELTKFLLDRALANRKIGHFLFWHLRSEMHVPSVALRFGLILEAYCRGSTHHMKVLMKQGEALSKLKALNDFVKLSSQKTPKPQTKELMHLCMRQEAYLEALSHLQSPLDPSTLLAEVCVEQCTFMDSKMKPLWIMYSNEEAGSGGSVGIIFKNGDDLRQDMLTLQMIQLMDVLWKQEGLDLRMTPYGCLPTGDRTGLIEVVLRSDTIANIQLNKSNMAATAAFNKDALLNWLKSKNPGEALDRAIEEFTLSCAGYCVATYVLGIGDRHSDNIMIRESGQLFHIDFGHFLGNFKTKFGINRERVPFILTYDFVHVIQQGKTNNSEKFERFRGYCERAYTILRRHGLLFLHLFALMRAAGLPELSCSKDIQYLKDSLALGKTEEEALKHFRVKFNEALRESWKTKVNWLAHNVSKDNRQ
T23 sequence (P27986 whole entry partner): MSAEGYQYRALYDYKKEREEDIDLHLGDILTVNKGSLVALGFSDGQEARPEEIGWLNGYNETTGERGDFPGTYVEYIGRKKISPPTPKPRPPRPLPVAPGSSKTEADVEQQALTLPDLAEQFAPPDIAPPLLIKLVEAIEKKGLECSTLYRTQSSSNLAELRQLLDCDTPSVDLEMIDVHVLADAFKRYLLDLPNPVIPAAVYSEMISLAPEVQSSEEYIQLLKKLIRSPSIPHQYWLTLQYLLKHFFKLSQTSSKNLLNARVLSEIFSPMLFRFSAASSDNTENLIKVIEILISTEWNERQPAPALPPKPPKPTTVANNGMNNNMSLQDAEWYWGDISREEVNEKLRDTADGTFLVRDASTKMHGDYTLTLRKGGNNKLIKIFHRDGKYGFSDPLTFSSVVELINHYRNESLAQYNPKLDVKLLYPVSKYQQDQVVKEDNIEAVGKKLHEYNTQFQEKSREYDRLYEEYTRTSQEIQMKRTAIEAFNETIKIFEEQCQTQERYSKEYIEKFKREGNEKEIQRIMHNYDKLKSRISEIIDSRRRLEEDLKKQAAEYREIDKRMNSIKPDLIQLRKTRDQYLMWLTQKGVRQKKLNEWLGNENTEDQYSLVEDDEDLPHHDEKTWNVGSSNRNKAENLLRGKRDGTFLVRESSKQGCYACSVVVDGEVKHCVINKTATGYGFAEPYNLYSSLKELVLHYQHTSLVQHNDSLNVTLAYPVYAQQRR
T27 sequence (Q06187 whole entry R28H): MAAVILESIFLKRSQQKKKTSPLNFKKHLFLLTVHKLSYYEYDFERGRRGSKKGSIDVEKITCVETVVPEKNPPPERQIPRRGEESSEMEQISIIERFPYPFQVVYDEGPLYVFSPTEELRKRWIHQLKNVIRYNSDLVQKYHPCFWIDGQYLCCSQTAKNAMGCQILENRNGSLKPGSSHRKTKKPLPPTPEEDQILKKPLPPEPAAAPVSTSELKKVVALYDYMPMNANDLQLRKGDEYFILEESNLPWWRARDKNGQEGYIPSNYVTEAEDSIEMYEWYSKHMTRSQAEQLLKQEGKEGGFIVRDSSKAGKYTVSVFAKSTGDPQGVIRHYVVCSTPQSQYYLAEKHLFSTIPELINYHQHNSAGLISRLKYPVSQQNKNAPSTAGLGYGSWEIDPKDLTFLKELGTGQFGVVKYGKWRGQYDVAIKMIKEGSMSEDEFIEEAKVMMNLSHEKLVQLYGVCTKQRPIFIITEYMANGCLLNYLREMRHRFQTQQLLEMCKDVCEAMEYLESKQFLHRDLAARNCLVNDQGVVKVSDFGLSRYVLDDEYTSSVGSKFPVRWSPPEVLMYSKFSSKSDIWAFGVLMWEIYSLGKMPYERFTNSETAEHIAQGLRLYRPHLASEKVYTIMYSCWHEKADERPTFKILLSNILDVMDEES

For `c1cc(-c2ccc3nccc(Nc4ccc5scnc5c4)c3c2)ccn1` [Compound 14, N-(6-(pyridin-4-yl)quinolin-4-yl)benzo[d]thiazol-5-amine], the “Remaining Itk kinase activity (%) with compound 14 at 1 µM” value [1] was 78, the “% remaining kinase activity” value [2] was 94 and the “remaining kinase activity (%)” value [3] was 75. For the same compound, the “Remaining kinase activity (% of control)” value [4] was 70, the “remaining kinase activity (% of control) with compound 14 at 1 µM” value [5] was 102 and the “EGFR(h), 14 @ 1 µM” value [6] was 104. The “Remaining kinase activity (%) with compound 14 at 1 µM” value [7] was 103, the “remaining kinase activity (% of control) with compound 14 at 1 µM” value [8] was 78 and the “Remaining PKG1α activity (% of control) with compound 14 at 1 µM” value [9] was 64. The “Remaining kinase activity (% of control)” value [10] was 117, the “remaining kinase activity (%)” value ([11]; 1 µM) was 41 and the inhibition at 1 µM ([11]; at 1 µM) was 50 to 90%. For the same compound, the “Remaining kinase activity (% of control)” value [12] was 95, the CL [13] was 9.64 mL/min/kg and the half-life [13] was 1.6 h. The “ALK remaining activity (% of control)” value [14] was 77, the LipE [15] was 4.40 and the “remaining kinase activity (% of control) with compound 14 at 1 µM” value [16] was 88. For the same compound, the “% remaining MEK1 activity” value [17] was 105, the “c-RAF remaining activity (% of control) with compound 14 at 1 µM” value [18] was 65 and the “CDK7/cyclinH/MAT1(h), 14 @ 1 µM” value [19] was 83. The “LOK remaining activity (% of control)” value ([20]; 1 µM) was 44, the inhibition at 1 µM ([20]; at 1 µM) was 50 to 90% and the “% remaining kinase activity with compound 14 at 1 µM” value [21] was 94. For the same compound, the IC50 [22] was 5.1 ± 1.6 nM, the “percent kinase activity remaining” value [23] was 97 and the “IRAK1 remaining activity (% of control) with compound 14 at 1 µM” value [24] was 91. For the same compound, the “Remaining kinase activity (% of control)” value [25] was 54, the “Remaining kinase activity (% of control)” value [26] was 96 and the “Remaining DRAK1 activity (% of control)” value [27] was 110. The “percent remaining MAPKAP-K2 activity” value [28] was 95, the “percent remaining kinase activity” value [29] was 63 and the “kinase activity remaining (% of control)” value [30] was 108. The “JAK1 remaining kinase activity with compound 14 at 1 µM (% of control)” value [31] was 105, the “SRPK1(h), 14 @ 1 µM” value [32] was 111 and the “inhibition of MDP-induced TNF-α secretion” value [33] was “strong inhibitory activity on MDP-induced TNF-α secretion with a dose-dependent manner”.
